Experimental data reported in the NIST ThermoML archive (doi:10.1021/acs.jced.6b00542).

Test: xn = mol fraction of the nth substance listed
Details: for speed of sound: 100 kPa, Frequency=3 MHz, Sing-around technique in a fixed-path interferometer; for speed of sound / viscosity / mass density: Liquid; for viscosity / mass density: 102 kPa; for viscosity: Concentric cylinders viscometry; for mass density: Vibrating tube method; for surface tension liquid-gas: 294.5 K, Pendant drop shape

CCCCc1ccccc1 [butylbenzene] + CCCCCCCCCCCC
Details | mass density [kg/m3] | speed of sound [m/s] | viscosity [mPa·s]
293.15 K, x1 = 0.1241 | 758.28 | 1300.2 | 1.38
293.15 K, x1 = 0.2414 | 768.11 | 1302.8 | 1.31
293.15 K, x1 = 0.3524 | 778.18 | 1306.4 | 1.24
293.15 K, x1 = 0.4583 | 788.6 | 1310.3 | 1.19
293.15 K, x1 = 0.5593 | 799.56 | 1315.4 | 1.15
293.15 K, x1 = 0.6552 | 810.7 | 1321.3 | 1.11
293.15 K, x1 = 0.7575 | 823.88 | 1328.6 | 1.08
293.15 K, x1 = 0.8349 | 834.67 | 1335.5 | 1.06
293.15 K, x1 = 0.9194 | 847.33 | 1343.9 | 1.04
293.15 K, x1 = 1 | 860.51 | 1353.7 | 1.05
303.15 K, x1 = 0.1241 | 750.96 | 1262 | 1.17
303.15 K, x1 = 0.2414 | 760.73 | 1264.8 | 1.12
303.15 K, x1 = 0.3524 | 770.74 | 1268.4 | 1.07
303.15 K, x1 = 0.4583 | 781.11 | 1272.3 | 1.03
303.15 K, x1 = 0.5593 | 791.97 | 1277.3 | 0.996
303.15 K, x1 = 0.6552 | 803.03 | 1283.1 | 0.968
303.15 K, x1 = 0.7575 | 816.12 | 1290.4 | 0.941
303.15 K, x1 = 0.8349 | 826.84 | 1297 | 0.925
303.15 K, x1 = 0.9194 | 839.4 | 1305.4 | 0.909
303.15 K, x1 = 1 | 852.49 | 1314.9 | 0.91
313.15 K, x1 = 0.1241 | 743.61 | 1224.4 | 1.01
313.15 K, x1 = 0.2414 | 753.32 | 1227.2 | 0.968
313.15 K, x1 = 0.3524 | 763.26 | 1230.8 | 0.931
313.15 K, x1 = 0.4583 | 773.56 | 1234.7 | 0.9
313.15 K, x1 = 0.5593 | 784.35 | 1239.7 | 0.873
313.15 K, x1 = 0.6552 | 795.32 | 1245.4 | 0.85
313.15 K, x1 = 0.7575 | 808.33 | 1252.5 | 0.829
313.15 K, x1 = 0.8349 | 818.96 | 1259.1 | 0.816
313.15 K, x1 = 0.9194 | 831.44 | 1267.3 | 0.804
313.15 K, x1 = 1 | 844.43 | 1276.6 | 0.801
323.15 K, x1 = 0.1241 | 736.23 | 1187.2 | 0.879
323.15 K, x1 = 0.2414 | 745.87 | 1190 | 0.846
323.15 K, x1 = 0.3524 | 755.75 | 1193.7 | 0.817
323.15 K, x1 = 0.4583 | 765.97 | 1197.6 | 0.793
323.15 K, x1 = 0.5593 | 776.69 | 1202.5 | 0.771
323.15 K, x1 = 0.6552 | 787.58 | 1208.1 | 0.753
323.15 K, x1 = 0.7575 | 800.5 | 1215.2 | 0.736
323.15 K, x1 = 0.8349 | 811.06 | 1221.6 | 0.725
323.15 K, x1 = 0.9194 | 823.44 | 1229.7 | 0.716
323.15 K, x1 = 1 | 836.34 | 1238.7 | 0.713
333.15 K, x1 = 0.1241 | 728.82 | 1150.5 | 0.771
333.15 K, x1 = 0.2414 | 738.39 | 1153.4 | 0.745
333.15 K, x1 = 0.3524 | 748.19 | 1157 | 0.722
333.15 K, x1 = 0.4583 | 758.34 | 1161 | 0.703
333.15 K, x1 = 0.5593 | 768.98 | 1165.8 | 0.686
333.15 K, x1 = 0.6552 | 779.81 | 1171.3 | 0.671
333.15 K, x1 = 0.7575 | 792.63 | 1178.4 | 0.657
333.15 K, x1 = 0.8349 | 803.11 | 1184.6 | 0.649
333.15 K, x1 = 0.9194 | 815.41 | 1192.5 | 0.64
333.15 K, x1 = 1 | 828.21 | 1201.4 | 0.636
343.15 K, x1 = 0.1241 | 721.2 | – | 0.683
343.15 K, x1 = 0.2414 | 730.8 | – | 0.662
343.15 K, x1 = 0.3524 | 740.5 | – | 0.643
343.15 K, x1 = 0.4583 | 750.7 | – | 0.627
343.15 K, x1 = 0.5593 | 761.2 | – | 0.614
343.15 K, x1 = 0.6552 | 771.9 | – | 0.602
343.15 K, x1 = 0.7575 | 784.7 | – | 0.59
343.15 K, x1 = 0.8349 | 795.1 | – | 0.583
343.15 K, x1 = 0.9194 | 807.2 | – | 0.576
343.15 K, x1 = 1 | 819.9 | – | 0.571
353.15 K, x1 = 0.1241 | 713.7 | – | 0.608
353.15 K, x1 = 0.2414 | 723.2 | – | 0.591
353.15 K, x1 = 0.3524 | 732.9 | – | 0.576
353.15 K, x1 = 0.4583 | 743 | – | 0.563
353.15 K, x1 = 0.5593 | 753.4 | – | 0.552
353.15 K, x1 = 0.6552 | 764 | – | 0.542
353.15 K, x1 = 0.7575 | 776.7 | – | 0.532
353.15 K, x1 = 0.8349 | 787 | – | 0.526
353.15 K, x1 = 0.9194 | 799.1 | – | 0.521
353.15 K, x1 = 1 | 811.7 | – | 0.516
363.15 K, x1 = 0.1241 | 706.1 | – | 0.546
363.15 K, x1 = 0.2414 | 715.6 | – | 0.532
363.15 K, x1 = 0.3524 | 725.1 | – | 0.519
363.15 K, x1 = 0.4583 | 735.2 | – | 0.508
363.15 K, x1 = 0.5593 | 745.5 | – | 0.499
363.15 K, x1 = 0.6552 | 756 | – | 0.491
363.15 K, x1 = 0.7575 | 768.6 | – | 0.483
363.15 K, x1 = 0.8349 | 778.9 | – | 0.478
363.15 K, x1 = 0.9194 | 790.9 | – | 0.473
363.15 K, x1 = 1 | 803.4 | – | 0.469
373.15 K, x1 = 0.1241 | 698.5 | – | 0.493
373.15 K, x1 = 0.2414 | 707.8 | – | 0.481
373.15 K, x1 = 0.3524 | 717.3 | – | 0.471
373.15 K, x1 = 0.4583 | 727.2 | – | 0.461
373.15 K, x1 = 0.5593 | 737.5 | – | 0.454
373.15 K, x1 = 0.6552 | 747.9 | – | 0.447
373.15 K, x1 = 0.7575 | 760.5 | – | 0.44
373.15 K, x1 = 0.8349 | 770.7 | – | 0.436
373.15 K, x1 = 0.9194 | 782.6 | – | 0.432
373.15 K, x1 = 1 | 795 | – | 0.43

Details | surface tension liquid-gas [mN/m]
x1 = 0.1241 | 25.4
x1 = 0.2414 | 26
x1 = 0.3524 | 26.3
x1 = 0.4583 | 26.2
x1 = 0.5593 | 26.7
x1 = 0.6552 | 27
x1 = 0.7575 | 27.5
x1 = 0.8349 | 27.7
x1 = 0.9194 | 28.4
